Data from patent publication US20070123556A1, “Treatment with Sigma Receptor Agonists Post-Stroke” (UNIVERSITY OF SOUTH FLORIDA, priority 2005, published 2007).
Read-outs that look alike come from different tables or passages of the source.

How the values were obtained:
[1] = tested on: voltage-gated K channels; details: rat intracardiac neurons; read-out: IC50 inhibition of voltage-gated K channels; cited from earlier work
[2] = molecular target: sigma-1 receptors (Homo sapiens, UniProt Q99720); details: cited from earlier work
[3] = tested on: cultured cortical neurons; experiment: in vitro ischemia (sodium azide/glucose deprivation), fura-2 [Ca2+]i; type: cell-based, rat; details: for IC50: Langmuir-Hill fit, read-out: IC50 (half-maximal concentration), inhibition of ischemia-evoked increases in [Ca2+]i
Protocol: The effects of sigma receptors on ischemia-induced changes in intracellular calcium concentrations were studied in cultured cortical neurons from embryonic (E18) rats. Dams were euthanatized by decapitation, uterus removed, and embryos dissected out and placed in isotonic buffer containing (in mM): 137 NaCl, 5 KCl, 0.2 NaH2PO4, 0.2 KH2PO4, 5.5 glucose, 6 sucrose (pH 7.4 with NaOH). Cortex were excised and minced, and tissue digested in isotonic buffer containing 0.25% trypsin/EDTA for 10 min at 37° C. and added to 3× volume of high glucose culture media (Dulbecco's Modified Eagle Media; Invitrogen, Inc., Carlsbad, Calif.), 10% (v/v) fetal calf serum, 100 U/ml penicillin and 0.1 mg/ml streptomycin. Cells were counted on a hemocytometer, plated (0.5×10^6 cells) on 18 mm coverslips coated with poly-l-lysine, and incubated at 37° C. under a 95% air, 5% CO2 atmosphere. After 24 hr the media was replaced with Neurobasal (Invitrogen) medium supplemented with B27 (Invitrogen) and 0.5 mM 1-glutamine to limit astrocyte proliferation in the cultures. Cells were used after 14-21 days in culture.
Intracellular free-calcium was measured using the calcium sensitive dye, fura-2 as previously described (DeHaven and Cuevas, 2004). Cells plated on coverslips were incubated for 1 hour at room temperature in physiological saline solution (PSS) consisting of (in mM): 140 NaCl, 3 KCl, 2.5 CaCl2, 1.2 MgCl2, 7.7 glucose and 10 HEPES (pH to 7.2 with NaOH), which also contained 1 μM of the membrane permeable ester form of fura-2, acetoxymethylester (fura-2 AM) and 0.1% dimethyl sulfoxide (DMSO). The coverslips were then washed in PSS (fura-2 AM free) prior to the experiments being carried out. All solutions were applied via a rapid application system identical to that previously described (Cuevas and Berg, 1998).
A DG-4 high-speed wavelength switcher (Sutter Instruments Co., Novato, Calif.) was used to apply alternating excitation light, and fluorescent emission was captured using a Sensicam digital CCD camera (Cooke Corporation, Auburn Hills, Mich.) and recorded with Slidebook 3.0 software (Intelligent Imaging Innovations, Denver, Colo.). Changes in [Ca^2+]i were calculated using the Slidebook 3 software (Intelligent Imaging Innovations) using methods described previously (DeHaven and Cuevas, 2004).
In vitro ischemia was achieved using the sodium azide/glucose deprivation model.
The control bath solution for all experiments was a physiological saline solution (PSS) containing (in mM) 140 NaCl, 1.2 MgCl2, 3 KCl, 2.5 CaCl2, 7.7 glucose and 10 HEPES, pH to 7.2 with NaOH. All drugs were applied in this solution unless otherwise noted. In vitro ischemia was induced by addition of the cytochrome oxidase inhibitor, NaN3 (4 mM), and removal of glucose from the PSS. For experiments in which multiple ischemic episodes were induced in a single cell, the order of drug application was alternatively reversed to compensate for any effects due to rundown, desensitization or ischemic preconditioning. For experiments with metaphit, cells were preincubated in 50 μM metaphit during the last 15 mm of fura-2 loading and immediately prior to experiments being conducted. The metaphit was washed off for 5 min in the bath using PSS.

[4] = tested on: ASIC channels; experiment: low-pH (pH 6.0) evoked ASIC-mediated increases in [Ca2+]i; type: cell-based, rat; details: 50 μM, pH 6.0, reversible
[5] = tested on: delayed outwardly rectifying K+ channels; details: frog pituitary melanotrophs; read-out: IC50 inhibition of delayed outwardly rectifying K+ channels; cited from earlier work
[6] = tested on: glutamate receptors; details: cited from earlier work
[7] = tested on: transient ischemia model (MCAO); details: intravenous, 1-2 hr following reperfusion; cited from earlier work
[8] = tested on: cultured cortical neurons; experiment: spontaneous Ca2+ transients, fura-2 [Ca2+]i; type: cell-based, rat
[9] = tested on: rat hippocampal slices; details: rat hippocampal slices (Thurgur and Church, 1998); read-out: value reported for inhibition of epileptiform activity; cited from earlier work
[10] = tested on: voltage-gated Ca2+; details: rat intracardiac neurons; read-out: IC50 inhibition of voltage-gated Ca2+; cited from earlier work
[11] = molecular target: sigma-2 receptors (Homo sapiens, UniProt Q5BJF2); details: cited from earlier work
Chain of sigma-2 receptors (Q5BJF2 whole entry): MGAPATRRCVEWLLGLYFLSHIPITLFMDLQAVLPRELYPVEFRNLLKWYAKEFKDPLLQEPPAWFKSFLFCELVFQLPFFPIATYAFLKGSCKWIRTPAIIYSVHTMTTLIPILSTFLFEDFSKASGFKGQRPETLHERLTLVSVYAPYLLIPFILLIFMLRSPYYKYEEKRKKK

Chain of sigma-1 receptors (Q99720 whole entry): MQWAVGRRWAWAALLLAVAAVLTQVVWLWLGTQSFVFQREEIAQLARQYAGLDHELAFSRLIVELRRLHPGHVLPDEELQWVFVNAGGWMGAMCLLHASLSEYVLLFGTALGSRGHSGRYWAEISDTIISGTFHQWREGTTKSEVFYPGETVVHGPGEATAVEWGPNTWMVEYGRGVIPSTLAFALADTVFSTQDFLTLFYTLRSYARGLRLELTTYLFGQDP

## CC(C)=CCN1CCC2(C)c3cc(O)ccc3CC1C2C (single isomer, unassigned; (+)) [(+)-pentazocine]
[1]
  IC50: 42 µM
[2]
  affinity of sigma-1 receptors relative to ibogaine: ~2000 fold
[3]; 10 μM
  decrease of ischemia-induced elevations in [Ca2+]i: 37±5%
[3]; 10 μM, listed as (+) pentazocine
  decrease of ischemia-induced elevations in [Ca2+]i: ~60%
[3]; 100 μM
  decrease of ischemia-induced elevations in [Ca2+]i: 49±4%
[4]
  decrease of low-pH evoked increases in [Ca2+]i: 50%
[5]
  IC50: 37 µM

## C=CCN1CCC2(C)c3cc(O)ccc3CC1C2C (single isomer, unassigned; (+)) [(+)SKFIOO47]
[6]; 10 μM
  inhibition of calcium elevations evoked by glutamate application: inhibit

## CN(C)CCN(C)CCc1ccc(Cl)c(Cl)c1 [BD-1047, N-[2-(3,4-dichlorophenyl)ethyl]-N-methyl-2-(dimethylamino)ethylamine]
[3]; 1 pM BD-1047, with DTG
  reduction of the effects of DTG on ischemia-evoked calcium transients: 15%
[3]; 10 pM BD-1047, with DTG
  reduction of the effects of DTG on ischemia-evoked calcium transients: 55%

## c1ccc(CCCCN2CCC(c3ccccc3)CC2)cc1 [PPBP, 4-phenyl-1-(4-phenylbutyl)piperidine]
[7]
  decrease in neurodegeneration in brain sections: 40%

## O=C(OCCN1CCOCC1)C1(c2ccccc2)CCCCC1 [PRE-084]
[3]; 10 μM
  decrease of ischemia-induced elevations in [Ca2+]i: 26±4%
[3]; 100 μM
  decrease of ischemia-induced elevations in [Ca2+]i: 58±1%

## NC1=N[C@H](O)[C@H]2[C@H]3O[C@]4(O)O[C@@H]([C@@H](O)[C@@]2(N1)[C@@H]4O)[C@]3(O)CO [TTX, tetrodotoxin]
[3]
  decrease of ischemia-evoked increase in [Ca2+]i: 65±4%

## CCN(CC)CCOCCOC(=O)C1(c2ccccc2)CCCC1 [carbetapentane]
[2]; sigma-1 over sigma-2
  affinity of sigma-1 receptors relative to sigma-2 receptors: > 30 fold
[3]
  IC50: 13 µM
[3]; Rattus norvegicus, Cortical neurone
  IC50: 13.3 µM
[8]; 100 μM
  effect on spontaneous increases in [Ca2+]i (number of events): significant decrease
[9]
  IC50: 38 µM
[6]; 100 μM
  inhibition of calcium elevations evoked by glutamate application: not

## O=C(CCCN1CCC(O)(c2ccc(Cl)cc2)CC1)c1ccc(F)cc1 [haloperidol]
[6]; 10 μM
  inhibition of calcium elevations evoked by glutamate application: inhibit

## C/C=C(/C)C(=O)O[C@H]1C(C)=C2[C@H]([C@@H]1OC(=O)CCCCCCC)[C@@](C)(OC(C)=O)C[C@H](OC(=O)CCC)[C@@]1(O)[C@H]2OC(=O)[C@@]1(C)O [thapsigargin]
[3]; 10 μM, thapsigargin by preincubation
  effect on ischemia-induced peak elevation in [Ca2+]i: decreased the peak elevation

## ibogaine
[10]
  IC50: 31 µM
[3]; 1-100 μM
  effect on ischemia-induced elevations in [Ca2+]i: failed to inhibit
[4]
  decrease of low-pH evoked increases in [Ca2+]i: 70%
[11]
  affinity of sigma-2 receptors relative to (+)-pentazocine: ~6 fold
[11]; sigma-2 over sigma-1
  affinity of sigma-2 receptors relative to sigma-1 receptors: > 40 fold
[8]; 50 μM
  effect on number of spontaneous calcium events: significantly decreased

## metaphit
[3]; preincubation in 50 μM metaphit, no DTG
  ischemia-induced elevation in [Ca2+]i: 495 ± 68 nM

## ryanodine
[3]
  effect on ischemia-induced peak elevation in [Ca2+]i: did not significantly alter
